Data reported in patent US12371454B2, “Cyclic peptide compound having Kras inhibitory action” (priority 2019, dated 2025).
Starred links: 1 amine or outer side, 2 acyl side, 3 side chain; linkers in the order of their positions; H or OH if unused. Positions of bridges follow the written chain, without caps; N, C: chain ends. Non-standard residues stand in square brackets, D forms with d. Residues, ends and D or L forms follow the SMILES beside them. *: point of attachment. hPhe(3,5-F2-4-CF3) = N[C@@H](CCc1cc(F)c(C(F)(F)F)c(F)c1)C(=O)O; hPhe(3-Cl-4-CF3) = N[C@@H](CCc1ccc(C(F)(F)F)c(Cl)c1)C(=O)O; hPhe(3-F,4-CF3) = N[C@@H](CCc1ccc(C(F)(F)F)c(F)c1)C(=O)O; NEtPhe(4-Me) = CCN[C@@H](Cc1ccc(C)cc1)C(=O)O; NMePhe(4-Cl) = CN[C@@H](Cc1ccc(Cl)cc1)C(=O)O; NMedβ3hAla = C[C@H](CC(=O)[*:2])N(C)[*:1]; Phe(3-Cl) = N[C@@H](Cc1cccc(Cl)c1)C(=O)O; hPhe(4-F) = N[C@@H](CCc1ccc(F)cc1)C(=O)O; NMeGly(cPent) = CN[C@H](C(=O)O)C1CCCC1; X84 = O=C(CN(CCc1ccncc1)[*:1])[*:2]; NMeCha = CN[C@@H](CC1CCCCC1)C(=O)O; NMeChg = CN[C@H](C(=O)O)C1CCCCC1; NMeF = CN[C@@H](Cc1ccccc1)C(=O)O; NMeI = CC[C@H](C)[C@H](NC)C(=O)O; NMeD = CN[C@@H](CC(=O)O)C(=O)O; NMeL = CN[C@@H](CC(C)C)C(=O)O; NMeV = CN[C@H](C(=O)O)C(C)C; d(β3hA) = C[C@@H](N)CC(=O)O; Morpholide = C1CN(*)CCO1; NMeA = CN[C@@H](C)C(=O)O; NMeAib = CNC(C)(C)C(=O)O; Piperidide = C1CCN(*)CC1; Pra = C#CC[C@H](N)C(=O)O; Pyrrolidide = C1CCN(*)C1; dNMeA = CN[C@H](C)C(=O)O; Ac5c = NC1(C(=O)O)CCCC1; Aze = O=C(O)[C@@H]1CCN1; X1 = FC1(F)CN(*)CC1(F)F; Aib = CC(C)(N)C(=O)O; NEtG = CCNCC(=O)O; Sar = CNCC(=O)O

biological target: T1, Kras and SOS1 (biotin-tagged human Kras loaded with GDP, His-tagged human SOS1) (Homo sapiens, UniProt P01116, G12D); assay: Protein-protein interaction inhibition between Kras and SOS1 (KrasGl2D-SOS PPI) using AlphaScreen; assay type: binding; settings: AlphaScreen; biotin-tagged human Kras loaded with GDP, His-tagged human SOS1; read-out: KRAS G12D-SOS PPI IC50
T1 construct: made in house; host or cells: E. coli (stated for Kras only)
In short: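 Binding between SOS1 and Kras is detected as bead-proximity luminescence: illuminate Ni-conjugated donors (680 nm), collect 520-620 nm emission from streptavidin-conjugated acceptors; Kras carries biotin and GDP loaded after purification, SOS1 carries a His tag.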

T1 sequence (P01116 1-188 isoform P01116-2 G12D): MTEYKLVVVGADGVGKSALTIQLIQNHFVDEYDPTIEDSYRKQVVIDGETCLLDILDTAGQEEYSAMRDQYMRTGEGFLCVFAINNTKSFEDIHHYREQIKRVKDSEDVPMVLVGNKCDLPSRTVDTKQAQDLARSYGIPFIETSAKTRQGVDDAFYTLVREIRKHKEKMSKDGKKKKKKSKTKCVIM

Compound | IC50 [nM]
CC[C@H](C)[C@@H]1NC(=O)[C@H](C)N(C)C(=O)C[C@@H](C)NC(=O)[C@H](C2CCCC2)N(C)C(=O)C2(CCCC2)NC(=O)[C@@H]2CCCN2C(=O)[C@H](CCc2ccc(C(F)(F)F)c(Cl)c2)NC(=O)[C@@H](C)N(C)C(=O)[C@H](CC2CCCCC2)N(C)C(=O)CN(C)C(=O)CN(C)C1=O [Compound 1535] (cyclo([Ac5c][NMeGly(cPent)][d(β3hA)][NMeA]I[Sar][Sar][NMeCha][dNMeA][hPhe(3-Cl-4-CF3)]P)) | 41
CC[C@H](C)[C@@H]1NC(=O)[C@H](CC(C)C)N(C)C(=O)C[C@@H](C(=O)N2CCOCC2)N(C)C(=O)[C@H](C2CCCC2)N(C)C(=O)C2(CCCC2)NC(=O)[C@@H]2CCCN2C(=O)[C@H](CCc2cc(F)c(C(F)(F)F)c(F)c2)NC(=O)CN(C)C(=O)[C@H](Cc2ccc(C)cc2)N(CC)C(=O)[C@@H]2CCN2C(=O)[C@H](C)N(C)C1=O [Compound 1368] ([NMeL]I[NMeA][Aze][NEtPhe(4-Me)][Sar][hPhe(3,5-F2-4-CF3)]P[Ac5c][NMeGly(cPent)][NMeD]-Morpholide; lactam N-11) | 0.67
C#CC[C@@H]1NC(=O)[C@H](CC(C)C)N(C)C(=O)C[C@@H](C)NC(=O)[C@H](CC(C)C)N(C)C(=O)C2(CCCC2)NC(=O)[C@@H]2CCCN2C(=O)[C@H](CCc2ccc(C(F)(F)F)c(F)c2)NC(=O)CN(C)C(=O)[C@H](CC2CCCCC2)N(C)C(=O)CN(C)C(=O)CN(C)C1=O [Compound 1533] (cyclo([Ac5c][NMeL][d(β3hA)][NMeL][Pra][Sar][Sar][NMeCha][Sar][hPhe(3-F,4-CF3)]P)) | 68
CC[C@H](C)[C@@H]1NC(=O)[C@H](C)N(C)C(=O)C[C@@H](C)NC(=O)[C@H](CC(C)C)N(C)C(=O)C(C)(C)NC(=O)[C@H](CC(C)C)N(C)C(=O)[C@H](CCc2ccc(F)cc2)NC(=O)CN(C)C(=O)[C@H](Cc2ccc(Cl)cc2)N(C)C(=O)CN(C)C(=O)CN(C)C1=O [Compound 28] (cyclo([Aib][NMeL][d(β3hA)][NMeA]I[Sar][Sar][NMePhe(4-Cl)][Sar][hPhe(4-F)][NMeL])) | 160
CC[C@H](C)[C@@H]1NC(=O)[C@H](CC(C)C)N(C)C(=O)C[C@@H](C(=O)N2CCCCC2)N(C)C(=O)[C@H](C2CCCCC2)N(C)C(=O)C2(CCCC2)NC(=O)CN(CCc2ccncc2)C(=O)[C@H](CCc2ccc(C(F)(F)F)c(Cl)c2)NC(=O)CN(C)C(=O)[C@H](CC2CCCCC2)N(C)C(=O)CN(C)C(=O)CN(C)C1=O [Compound 2029] ([NMeL]I[Sar][Sar][NMeCha][Sar][hPhe(3-Cl-4-CF3)][X84][Ac5c][NMeChg][NMeD]-Piperidide; lactam N-11) | 0.83
CC[C@H](C)[C@@H]1NC(=O)[C@H](C)N(C)C(=O)C[C@@H](C)N(C)C(=O)[C@H]([C@@H](C)CC)N(C)C(=O)C(C)(C)N(C)C(=O)[C@@H]2CCCN2C(=O)[C@H](CCc2ccc(C(F)(F)F)c(Cl)c2)NC(=O)CN(C)C(=O)[C@H](CC2CCCCC2)N(C)C(=O)[C@@H]2CCN2C(=O)[C@H](C)N(C)C1=O [Compound 2153] (cyclo([Aze][NMeCha][Sar][hPhe(3-Cl-4-CF3)]P[NMeAib][NMeI][NMedβ3hAla][NMeA]I[NMeA])) | 6.9
CC[C@H](C)[C@@H]1NC(=O)[C@H](C)N(C)C(=O)C[C@@H](C(=O)N2CCCC2)NC(=O)[C@H](C(C)C)N(C)C(=O)[C@H](Cc2ccccc2)N(C)C(=O)[C@H](Cc2ccccc2)NC(=O)[C@H](Cc2cccc(Cl)c2)NC(=O)CN(C)C(=O)[C@H](Cc2ccc(Cl)cc2)N(C)C(=O)CN(C)C(=O)CN(CC)C1=O [Compound 224] ([NMeA]I[NEtG][Sar][NMePhe(4-Cl)][Sar][Phe(3-Cl)]F[NMeF][NMeV]D-Pyrrolidide; lactam N-11) | 230
CC[C@H](C)[C@@H]1NC(=O)[C@H](CC(C)C)N(C)C(=O)C[C@@H](C(=O)N2CC(F)(F)C(F)(F)C2)NC(=O)[C@H]([C@@H](C)CC)N(C)C(=O)C2(CCCC2)NC(=O)[C@@H]2CCCN2C(=O)[C@H](CCc2ccc(C(F)(F)F)c(Cl)c2)NC(=O)CN(C)C(=O)[C@H](CC2CCCCC2)N(C)C(=O)CN(C)C(=O)CN(C)C1=O [Compound 1168] ([NMeL]I[Sar][Sar][NMeCha][Sar][hPhe(3-Cl-4-CF3)]P[Ac5c][NMeI]D-X1; lactam N-11) | 100
CC[C@H](C)[C@@H]1NC(=O)[C@H](CC(C)C)N(C)C(=O)C[C@@H](C)NC(=O)[C@H](C(C)C)N(C)C(=O)C2(CCCC2)NC(=O)[C@@H]2CCCN2C(=O)[C@H](CCc2ccc(C(F)(F)F)c(Cl)c2)NC(=O)CN(C)C(=O)[C@H](CC2CCCCC2)N(C)C(=O)CN(C)C(=O)CN(CC)C1=O [Compound 210] (cyclo([Ac5c][NMeV][d(β3hA)][NMeL]I[NEtG][Sar][NMeCha][Sar][hPhe(3-Cl-4-CF3)]P)) | 80
